According to patent US20250049914A1, “STEROID ACID-PEPTIDE BASED INTRACELLULAR CARGO DELIVERY” (DEFENCE THERAPEUTICS INC., priority 2021, published 2025):
Where no end group is shown, it is not given here.

Key:
BMDCs = experiment: Antigen-presentation assay using the B3Z reporter system, BMDCs; assay type: cell-based, mouse; conditions: for antigen-presentation activity of cholic acid-NLS peptide conjugates (B3Z response) / antigen cross-presentation of OVA (B3Z response) vs OVA alone: BMDCs; for antigen-presentation activity of cholic acid-NLS peptide conjugates (B3Z response): OVA admixed, best conjugate: antigen ratio; for antigen cross-presentation of OVA (B3Z response) vs OVA alone: OVA mixed with bile acid/peptide/conjugate, molar ratio 4:1
Protocol: Mouse bone marrow derived DCs (BMDCs) were generated by flushing the whole marrow from mouse femurs using RPMI™ 1640 supplemented with 10% fetal bovine serum (FBS), 50 U/mL Penicillin-Streptomycin, 2 mM L-glutamine, 10 mM HEPES, 1% MEM Non-essential Amino Acids, 1 mM Sodium Pyruvate, 0.5 mM beta-mercaptoethanol. Following red blood cell lysis, cells were then cultured in media supplemented with 50 ng/mL murine recombinant GM-CSF. The media was changed on days 2, 4, 6 and 8. On day 9, the media was replaced to include recombinant murine GM-CSF and LPS from Escherichia coli 0111 (1 ng/mL) to stimulate DC maturation. Mature DCs were assessed by flow cytometry for their surface expression of CD3, CD19, NK1.1, CD11c, CD80, CD86, and I-A^b.
(§1) Various bile acid-NLS conjugates were screened using the B3Z reporter system. The B3Z cell line is a T-cell hybridoma specific for the H2-K^b-[…] complex. Once activated via its TCR, the LacZ reporter gene (under the NFAT promoter control) is expressed. Briefly, 1.5×10^5 BMDCs or 2.5×10^5 MSCs were co-cultured with 5×10^4 B3Z cells treated with the mixing conditions of ovalbumin (OVA) and bile acid-NLS conjugates for overnight at 37° C. with 5% CO2. The following day, all cells were washed twice with PBS (pH 7.4), and the cell pellets were lysed by adding 100 μL of a lysis buffer containing 0.15 mM chlorophenol red-beta-D-galactopyranoside (CPRG) substrate (Calbiochem, La Jolla, CA), 0.125% NP40 (EMD Sciences, La Jolla, CA), 9 mM MgCl2 (Aldrich, USA) and 100 mM 2-mercaptoethanol in PBS. After a 5- or 24-h incubation at 37° C., absorbance was taken at 570 nm with 636 nm as the reference wavelength. For these experiments, OVA was re-suspended in PBS (pH 7.3) at 5-10 mg/mL. The different bile acid-NLS conjugates were re-suspended in H2O at 10 mg/mL. Bile acid-NLS conjugate: antigen mixtures were prepared at different molar ratios according to Table 1.
Variants of CA-SV40NLS were synthesized in order to explore structure-activity relationships relating to the antigen cross-presentation enhancing activity observed for this conjugate, and therefore a measure of antigen/cargo delivery. More particularly, conjugates having different bile acids conjugated to the SV40NLS peptide (SEQ ID NO: 1) were synthesized and their effect on antigen presentation was evaluated by using the B3Z reporter system with the OVA antigen as described in Example 1. […] In FIG. 11, no increase in antigen cross-presentation in BMDCs over the antigen alone (“OVA”) was observed when OVA was mixed with either unconjugated cholic acid (“CA”) or SV40NLS peptide (“SV40NLS”), although lower sensitivity of the B3Z reporter system as compared to the OT-I CD8 T cell-based assay may have been a factor.
(§2) Further variants of CA-SV40NLS were synthesized in which the SV40NLS peptide was replaced with peptides comprising other NLS's (Table 5) and the antigen presentation activities of the CA-NLS peptide conjugates were evaluated using the B3Z reporter system as described in Example 1. The following conjugate: antigen molar ratios were tested for each conjugate: 2:1, 4:1, 8:1, 12:1 and 22:1. The results in FIGS. 12-15 compare the antigen presentation activities of different conjugates at the conjugate: antigen ratio that yielded the highest B3Z response (OD570) for that conjugate.

WT MSCs = experiment: Antigen cross-presentation assay on wild-type MSCs with B3Z cells; assay type: cell-based, mouse; conditions: WT MSCs treated with CA-hnRNPA1 and OVA
Protocol: In order to generate Bone marrow (BM)-derived mouse MSCs, the femurs of 6-8-week-old female Balb/c or C57BL/6 mice were isolated and flushed with Alpha Modification of Eagle's Medium (AMEM) supplemented with 10% FBS and 50 U/mL Penicillin-Streptomycin in a 10 cm cell culture dish, then incubated at 37° C. Two days later, non-adherent cells were removed and the media replaced every 3 to 4 days until plastic-adherent cells reached 80% confluency. The generated cells were detached using 0.05% trypsin and expanded until a uniform MSC population was obtained. The generated MSCs were validated for their innate phenotype by flow-cytometry for the expression of CD44, CD45, CD73, and CD90. The cells were frozen in liquid nitrogen until use.
To assess cross-presentation assay, 25×10^3 cells MSCs were seeded per well in 24-well plate then pulsed with steroid acid peptide-conjugated for 6 h admixed with OVA. At the end of the pulsing period, the cells were washed to remove excess antigen then 5×10^4 B3Z cells. The cells were incubated for 17-19 hours prior to their lysis and incubation for another 4-6 hours at 37° C. with a CPRG solution. The optical density signal was detected at wavelength 570 using a SynergyH1™ microplate reader (Biotek, Winooski, VT, United States).
To determine whether a similar effect occurs in wild type (WT) (i.e., non-engineered) MSCs, BM-derived MSCs (Example 1) were used instead in the same cross presentation assay with B3Z responder cells.

[1] = test system: cross-presenting mesenchymal stromal cell line (cpMSC); experiment: Antigen-presentation assay using the B3Z reporter system, cross-presenting MSC line; assay type: cell-based; conditions: cpMSCs, OVA admixed, vs OVA alone or OVA mixed with CA-SV40NLS
Protocol: as §1, §2

Compound	effect of inhibitor on the antigen cross-presentation capacity of CA-hnRNPA1 (WT MSCs)	antigen cross-presentation of OVA (B3Z response) vs OVA alone (BMDCs)	other results
C[C@H](CCC(=O)NCC(=O)O)[C@H]1CC[C@H]2[C@@H]3[C@@H](O)C[C@@H]4C[C@H](O)CC[C@]4(C)[C@H]3CC[C@]12C [GUDCA, glycoursodeoxycholic acid, reference compound]			immunogen enhancer activity across GUDCA: OVA molar ratios (BMDCs; 2:1, 4:1, 8:1, 12:1 and 22:1): observed at all GUDCA: OVA molar ratios tested; increase in B3Z response (OD570) over OVA alone (BMDCs; OVA mixed with unconjugated GUDCA, 22:1, data not shown): ≤ 30%
NLS2-RG Domain RPS17: cholic acid conjugated to NLS2-RG Domain RPS17 peptide (SEQ ID NO: 8) (CNKRVCEEIAIIPSKKLRNKGSGRIQRGPVRGIS; cysteine pairing not given here; also: cholic acid conjugate, site not given here)			antigen-presentation activity of cholic acid-NLS peptide conjugates (B3Z response) (BMDCs): high antigen presentation activity
c1ccc2c(c1)[I+]c1ccccc1-2 [DPI, diphenyleneiodonium chloride]	neutralization		
CC(=O)N[C@@H](CS)C(=O)O [N-acetylcysteine]	neutralization		
cMyc NLS: cholic acid conjugated to cMyc NLS peptide CGYGPAAKRVKLDGG (SEQ ID NO: 12) (not fully specified (N-terminus); also: cholic acid conjugate, site not given here)			antigen-presentation activity of cholic acid-NLS peptide conjugates (B3Z response) (BMDCs): high antigen presentation activity
Cc1c(C)c2c(c(C)c1O)CC[C@@](C)(CCC[C@H](C)CCC[C@H](C)CCCC(C)C)O2 [α-tocopherol]	neutralization		
UDCA: ursodeoxycholic acid conjugated to the SV40NLS peptide (SEQ ID NO: 1) (CGYGPKKKRKVGG; not fully specified (N-terminus); also: ursodeoxycholic acid conjugate, site not given here)		comparable or higher	
C[C@H](CCC(=O)O)[C@H]1CC[C@H]2[C@@H]3[C@H](O)C[C@@H]4C[C@H](O)CC[C@]4(C)[C@H]3C[C@H](O)[C@]12C [CA, cholic acid, reference compound]		no increase	
GCDCA: glycochenodeoxycholic acid conjugated to the SV40NLS peptide (SEQ ID NO: 1) ({Glycochenodeoxycholic acid}-CGYGPKKKRKVGG; also: glycochenodeoxycholic acid conjugate, MOD_RES 1 Cholic Acid (ChAc))		comparable or higher	
SV40NLS: unconjugated NLS peptide CGYGPKKKRKVGG (SEQ ID NO: 1) (not fully specified) [reference compound]		no increase	
CC(=O)c1ccc2c(c1)Nc1ccccc1S2 [ML171]	neutralization		
CC1(C)CC(NC(=O)C[P+](c2ccccc2)(c2ccccc2)c2ccccc2)CC(C)(C)N1[O] [MitoTempo™]	did not neutralize		
GWG-SV40NLS: cholic acid conjugated to peptide CGWWGYGPKKKRKVGGWWG (SEQ ID NO: 3) (not fully specified (N-terminus); also: cholic acid conjugate, site not given here)			antigen-presentation activity of cholic acid-NLS peptide conjugates (B3Z response) [1]: strikingly high antigen-presentation activity; antigen-presentation activity of cholic acid-NLS peptide conjugates (B3Z response) (BMDCs): higher antigen-presentation activity than SV40NLS
